Data as given in US10524455B2, “Methods and compositions for inducing hygienic behavior in honey bees” (University of North Carolina at Greensboro, priority 2015, dated 2020).

Assays:
[1] = tested on: honey bees (single VSH colony); experiment: Induced hygienic behavior study with synthesized P32 applied to cell caps by airbrushing; type: in vivo, honey bee; conditions: for removal of pupae in treated brood cells compared to all control brood cells: roughly 10 ul per cell by airbrushing, 24 hours, controls: (Z)-16-dotriacontene at any concentration, hexane, no treatment; for dose dependence of removal: concentrations 1%, 0.3%, 0.1% by airbrushing
Method: Methods: The dose dependent removal effects of (Z)-10-tritriacontene and (Z)-16-dotriacontene applied to wax caps of honey bee brood cells were measured repeatedly in a single VSH colony. (Z)-10-tritriacontene, along with (Z)-16-dotriacontene and hexane controls were applied to capped honey bee brood cells using a Paasche H-100D Single Action Airbrush & Compressor system, operating at 25 PSI. To control the amount of brood cells exposed to each chemical treatment (and thus the dose per cell) 3″ diameter PVC pipe pieces were inserted into a brood frames containing capped pupae. Thus, for each treatment and replicate, 2 mL of solution was applied to a single 3″-diameter section of brood comb by airbrushing. Since there are roughly 200 cells per 3″ diameter circle, this is roughly 10 ul solution per cell. Concentrations of 1%, 0.3%, and 0.1% (Z)-10-tritriacontene and (Z)-16-dotriacontene were tested. Sample sizes for (Z)-10-tritriacontene were 532, 420, and 282 cells for concentrations of 1%, 0.3%, and 0.1%, respectively. Sample sizes for (Z)-16-dotriacontene were 289, 296, and 311 for concentrations of 1%, 0.3%, and 0.1%, respectively. Sample sizes for the hexane control and no treatment control were 425 and 154, respectively. The location of all assays on frames was randomized. The frequency of uncapping and removal was recorded at four hours and twenty-four hours post treatment. Chi-square analysis with Bonferroni correction was used to compare hygienic removal and uncapping between treatments.

[2] = tested on: honey bees (MH and control colonies); experiment: Induced hygienic behavior study with synthesized P32 applied to cell caps by syringe; type: in vivo, honey bee; conditions: results discarded by the patent for methodological issues
Method: Methods: The pure P32 compound will be aliquoted and diluted in hexane. 1 ul of different dilutions will be applied onto larvae and/or caps of individual brood cells in three experimental hives. The VSH, MH, and control genotype (together, hereinafter, referred to as “line”) will be tested for their response. Hives from each source will be set up in an experimental apiary and standardized in size, brood, and resources. Brood frames containing uncapped 5th larval instars will be collected from each hive, and the location of the uncapped cells will be marked using a plastic transparency. Frames will be replaced into the hives, and cells that are capped within the next 16 hours will be recorded and used for the experiment. At day 4 post-capping, cells will be treated with hexane (a negative control) or one of the following dilutions of pure P32: 10^−1, 10^−3, 10^−5, 10^−7, 10^−9, 10^−11. Pin-killed brood will be used as a positive control. Twenty cells will receive each treatment in each colony for a total sample size of 1440 (20 cells×8 treatments×3 replicate hives×3 genotypes). Treatments will be randomly distributed across experimental combs and the location of each treatment recorded on a clear transparent sheet put over the comb. […] A new method for application of chemicals by airbrushing was also utilized to increase speed and quantity in chemical application (FIG. 12).

Compound	removal of pupae in treated brood cells compared to all control brood cells ([1]; 0.3% in hexane)	removal of pupae in treated brood cells compared to all control brood cells ([1]; 1% in hexane)	dose dependence of removal [1]	removal of treated cells compared to hexane treated cells ([2]; MH colonies (both tested))	removal of treated cells compared to hexane treated cells ([2]; control colonies)
CCCCCCCCC/C=C\CCCCCCCCCCCCCCCCCCCCCC [(Z)-10-tritriacontene]	significantly greater	significantly greater	removed in a dose-dependent manner	significantly higher removal	no significant difference
CCCCCCCCCCCCCCC/C=C\CCCCCCCCCCCCCCC [(Z)-16-dotriacontene, reference compound]	–	–	removed in a dose-dependent manner	–	–
